Measurements: patent publication US11180462B2, “Microbiocidal oxadiazole derivatives” (SYNGENTA PARTICIPATIONS AG, priority 2015, dated 2021)

Columns and labels:
[1] = test system: Puccinia recondita f. Sp. Tritici; assay: Fungicidal activity against Puccinia recondita f. sp. tritici / wheat / leaf disc curative (brown rust); assay type: in vivo; conditions: foliar, 24 h, 200 ppm in the applied formulation, wheat leaf segments, curative (applied 1 day after inoculation), compared to untreated control leaf disks, read-out: disease control
Procedure, shortened: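 % disease control vs untreated, scored 6–8 d post-application. Wheat cv. Kanzler segments, spore-inoculated, dark 19° C/75% RH; formulated cpd applied 1 d post-inoc; then 19° C, 75% RH, 12 h L/12 h D.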

Phakopsora Pachyrhizi = assay: Fungicidal activity against Phakopsora pachyrhizi / soybean / leaf disc preventative (Asian soybean rust); assay type: in vivo; conditions: foliar, 200 ppm in the applied formulation, soybean leaf disks, compared to untreated control leaf disks, read-out: disease control
Procedure, shortened: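 Scored 12 to 14 days post-application as percent control relative to untreated check discs, rust spores were sprayed under the disc one day after compound treatment. Incubation: 20°C, 75% rh, first 24–36 h in darkness, then 12 h daily light; discs kept on water agar.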

[2] = test system: Puccinia recondita f. Sp. Tritici; assay: Fungicidal activity against Puccinia recondita f. sp. tritici / wheat / leaf disc preventative (brown rust); assay type: in vivo; conditions: foliar, 200 ppm in the applied formulation, wheat leaf segments, preventative, compared to untreated control leaf disks, read-out: disease control
Procedure, shortened: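 200 ppm spray on wheat cv. Kanzler leaf segments; spore inoculation +1 day; 19° C., 75% rh, 12 h/12 h light cycle; single rating of % control vs untreated at 7 to 9 days.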

[3] = test system: Glomerella lagenarium (Colletotrichum lagenarium); assay: Fungicidal activity against Glomerella lagenarium (Colletotrichum lagenarium) liquid culture / cucumber / preventative (anthracnose); assay type: cell-based; conditions: Colletotrichum orbiculare; 20 ppm in the applied formulation; liquid culture (PDB), growth inhibition measured photometrically after 3 to 4 days; compared to untreated control; read-out: disease control
Procedure, shortened: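 Percent activity against the untreated check was derived from photometric growth measurements made 2 to 7 days after conidia in potato dextrose broth were combined with compound at 20 ppm. Cultures were kept dark at 24 °C and 96% humidity.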

CCC(=O)N(C)Cc1ccc(-c2noc(C(F)(F)F)n2)cc1 [Compound 1.517, N-methyl-N-[[4-[5-(trifluoromethyl)-1,2,4-oxadiazol-3-yl]phenyl]methyl]-propanamide]
≥ 80%: pest or weed control at 200 ppm [1] | pest or weed control at 200 ppm (Phakopsora Pachyrhizi) | pest or weed control at 200 ppm [2] | inhibition of growth at 20 ppm [3]

O=C(C1CCCO1)N(Cc1ccc(-c2noc(C(F)(F)F)n2)cc1)C1CC1 (stereo not shown) [Compound 1.145, N-cyclopropyl-N-[[4-[5-(trifluoromethyl)-1,2,4-oxadiazol-3-yl]phenyl]methyl]-tetrahydrofuran-2-carboxamide]
≥ 80%: pest or weed control at 200 ppm [1] | pest or weed control at 200 ppm (Phakopsora Pachyrhizi) | pest or weed control at 200 ppm [2] | inhibition of growth at 20 ppm [3]

C=CCN(Cc1ccc(-c2noc(C(F)(F)F)n2)cc1)C(=O)C1CC1F (stereo not shown) [Compound 1.491, N-allyl-2-fluoro-N-[[4-[5-(trifluoromethyl)-1,2,4-oxadiazol-3-yl]phenyl]methyl]-cyclopropane-carboxamide]
≥ 80%: pest or weed control at 200 ppm [1] | pest or weed control at 200 ppm (Phakopsora Pachyrhizi) | pest or weed control at 200 ppm [2] | inhibition of growth at 20 ppm [3]

CON(Cc1ccc(-c2noc(C(F)(F)F)n2)cc1)C(=O)C(C)O (stereo not shown) [Compound 1.786, 2-hydroxy-N-methoxy-N-[[4-[5-(trifluoromethyl)-1,2,4-oxadiazol-3-yl]phenyl]methyl]-propanamide]
≥ 80%: pest or weed control at 200 ppm [1] | pest or weed control at 200 ppm (Phakopsora Pachyrhizi) | pest or weed control at 200 ppm [2] | inhibition of growth at 20 ppm [3]

CON(Cc1ccc(-c2noc(C(F)(F)F)n2)cc1)C(=O)c1ccccc1 [Compound 1.3, N-methoxy-N-[[4-[5-(trifluoromethyl)-1,2,4-oxadiazol-3-yl]phenyl]methyl]-benzamide]
≥ 80%: pest or weed control at 200 ppm [1] | pest or weed control at 200 ppm (Phakopsora Pachyrhizi) | pest or weed control at 200 ppm [2] | inhibition of growth at 20 ppm [3]

CCON(Cc1ccc(-c2noc(C(F)(F)F)n2)cc1)C(=O)C1CC1C (stereo not shown) [Compound 1.620]
≥ 80%: pest or weed control at 200 ppm [1] | pest or weed control at 200 ppm (Phakopsora Pachyrhizi) | pest or weed control at 200 ppm [2] | inhibition of growth at 20 ppm [3]

O=C(CC(F)(F)F)N(Cc1ccc(-c2noc(C(F)(F)F)n2)cc1)C1COC1 [Compound 1.751, 3,3,3-trifluoro-N-(oxetan-3-yl)-N-[[4-[5-(trifluoromethyl)-1,2,4-oxadiazol-3-yl]phenyl]methyl]-propanamide]
≥ 80%: pest or weed control at 200 ppm [1] | pest or weed control at 200 ppm (Phakopsora Pachyrhizi) | pest or weed control at 200 ppm [2] | inhibition of growth at 20 ppm [3]

O=C(C1CCOC1)N(CCO)Cc1ccc(-c2noc(C(F)(F)F)n2)cc1 (stereo not shown) [Compound 1.711, N-(2-hydroxyethyl)-N-[[4-[5-(trifluoromethyl)-1,2,4-oxadiazol-3-yl]phenyl]methyl]-tetrahydrofuran-3-carboxamide]
≥ 80%: pest or weed control at 200 ppm [1] | pest or weed control at 200 ppm (Phakopsora Pachyrhizi) | pest or weed control at 200 ppm [2]

CCON(Cc1ccc(-c2noc(C(F)(F)F)n2)cc1)C(=O)CCCOC [Compound 1.625, N-ethoxy-4-methoxy-N-[[4-[5-(trifluoromethyl)-1,2,4-oxadiazol-3-yl]phenyl]methyl]-butanamide]
≥ 80%: pest or weed control at 200 ppm [1] | pest or weed control at 200 ppm (Phakopsora Pachyrhizi) | pest or weed control at 200 ppm [2] | inhibition of growth at 20 ppm [3]

CCC(C)C(=O)N(Cc1ccc(-c2noc(C(F)(F)F)n2)cc1)CC1CC1 (stereo not shown) [Compound 1.233, N-(cyclopropylmethyl)-2-methyl-N-[[4-[5-(trifluoromethyl)-1,2,4-oxadiazol-3-yl]phenyl]methyl]-butanamide]
≥ 80%: pest or weed control at 200 ppm [1] | pest or weed control at 200 ppm (Phakopsora Pachyrhizi) | pest or weed control at 200 ppm [2] | inhibition of growth at 20 ppm [3]

N#CCC(=O)N(Cc1ccc(-c2noc(C(F)(F)F)n2)cc1)CC(F)(F)F [Compound 1.701, 2-cyano-N-(2,2,2-trifluoroethyl)-N-[[4-[5-(trifluoromethyl)-1,2,4-oxadiazol-3-yl]phenyl]methyl]-acetamide]
≥ 80%: pest or weed control at 200 ppm [1] | pest or weed control at 200 ppm (Phakopsora Pachyrhizi) | pest or weed control at 200 ppm [2] | inhibition of growth at 20 ppm [3]

O=C(OCCN(Cc1ccc(-c2noc(C(F)(F)F)n2)cc1)C(=O)C1CCOC1)C1CCOC1 (stereo not shown) [Compound 1.712, 2-(tetrahydrofuran-3-carbonyl-[[4-[5-(trifluoromethyl)-1,2,4-oxadiazol-3-yl]phenyl]methyl]-amino]ethyl tetrahydrofuran-3-carboxylate]
≥ 80%: pest or weed control at 200 ppm [1] | pest or weed control at 200 ppm (Phakopsora Pachyrhizi) | pest or weed control at 200 ppm [2]

CC1(C(=O)ON(Cc2ccc(-c3noc(C(F)(F)F)n3)cc2)C(=O)C2(C)COC2)COC1 [Compound 1.767, [(3-methyloxetane-3-carbonyl)-[[4-[5-(trifluoromethyl)-1,2,4-oxadiazol-3-yl]phenyl]methyl]-amino] 3-methyloxelane-3-carboxylate]
≥ 80%: pest or weed control at 200 ppm [1] | pest or weed control at 200 ppm (Phakopsora Pachyrhizi) | pest or weed control at 200 ppm [2]

CC1(C(=O)N(Cc2ccc(-c3noc(C(F)(F)F)n3)cc2)C2COC2)COC1 [Compound 1.744, 3-methyl-N-(oxetan-3-yl)-N-[[4-[5-(trifluoromethyl)-1,2,4-oxadiazol-3-yl]phenyl]methyl]-oxetane-3-carboxamide]
≥ 80%: pest or weed control at 200 ppm [1] | pest or weed control at 200 ppm (Phakopsora Pachyrhizi) | pest or weed control at 200 ppm [2]

CC1(C(=O)N(CCO)Cc2ccc(-c3noc(C(F)(F)F)n3)cc2)COC1 [Compound 1.721, N-(2-hydroxyethyl)-3-methyl-N-[[4-[5-(trifluoromethyl)-1,2,4-oxadiazol-3-yl]phenyl]methyl]-oxetane-3-carboxamide]
≥ 80%: pest or weed control at 200 ppm [1] | pest or weed control at 200 ppm (Phakopsora Pachyrhizi) | pest or weed control at 200 ppm [2]

CC1(C(=O)OCCN(Cc2ccc(-c3noc(C(F)(F)F)n3)cc2)C(=O)C2(C)COC2)COC1 [Compound 1.722, 2-[(3-methyloxetane-3-carbonyl)-[[4-[5-(trifluoromethyl)-1,2,4-oxadiazol-3-yl]phenyl]methyl]-amino]ethyl 3-methyloxetane-3-carboxylate]
≥ 80%: pest or weed control at 200 ppm [1] | pest or weed control at 200 ppm (Phakopsora Pachyrhizi) | pest or weed control at 200 ppm [2]

N#CCC(=O)N(Cc1ccc(-c2noc(C(F)(F)F)n2)cc1)C1COC1 [Compound 1.748, 2-cyano-N-(oxetan-3-yl)-N-[[4-[5-(trifluoromethyl)-1,2,4-oxadiazol-3-yl]phenyl]methyl]-acetamide]
≥ 80%: pest or weed control at 200 ppm [1] | pest or weed control at 200 ppm (Phakopsora Pachyrhizi) | pest or weed control at 200 ppm [2]

CCCCON(Cc1ccc(-c2noc(C(F)(F)F)n2)cc1)C(=O)C(C)CC (stereo not shown) [Compound 1.640, N-butoxy-2-methyl-N-[[4-[5-(trifluoromethyl)-1,2,4-oxadiazol-3-yl]phenyl]methyl]-butanamide]
≥ 80%: pest or weed control at 200 ppm [1] | pest or weed control at 200 ppm (Phakopsora Pachyrhizi) | pest or weed control at 200 ppm [2]

COC(C)C(=O)OCCN(Cc1ccc(-c2noc(C(F)(F)F)n2)cc1)C(=O)C(C)OC (stereo not shown) [Compound 1.732, 2-[2-methoxypropanoyl-[[4-[5-(trifluoromethyl)-1,2,4-oxadiazol-3-yl]phenyl]methyl]-amino]ethyl 2-methoxypropanoate]
≥ 80%: pest or weed control at 200 ppm [1] | pest or weed control at 200 ppm (Phakopsora Pachyrhizi) | pest or weed control at 200 ppm [2]

COC(C)C(=O)N(CCO)Cc1ccc(-c2noc(C(F)(F)F)n2)cc1 (stereo not shown) [Compound 1.731, N-(2-hydroxyethyl)-2-methoxy-N-[[4-[5-(trifluoromethyl)-1,2,4-oxadiazol-3-yl]phenyl]methyl]-propanamide]
≥ 80%: pest or weed control at 200 ppm [1] | pest or weed control at 200 ppm (Phakopsora Pachyrhizi) | pest or weed control at 200 ppm [2]

CCOCC(=O)N(Cc1ccc(-c2noc(C(F)(F)F)n2)cc1)C(C)CC (stereo not shown) [Compound 1.383, 2-ethoxy-N-sec-butyl-N-[[4-[5-(trifluoromethyl)-1,2,4-oxadiazol-3-yl]phenyl]methyl]-acetamide]
≥ 80%: pest or weed control at 200 ppm [1] | pest or weed control at 200 ppm (Phakopsora Pachyrhizi) | pest or weed control at 200 ppm [2]

C#CCN(Cc1ccc(-c2noc(C(F)(F)F)n2)cc1)C(=O)C1CSC1 [Compound 1.172, N-prop-2-ynyl-N-[[4-[5-(trifluoromethyl)-1,2,4-oxadiazol-3-yl]phenyl]methyl]-thietane-3-carboxamide]
≥ 80%: pest or weed control at 200 ppm [1] | pest or weed control at 200 ppm (Phakopsora Pachyrhizi) | pest or weed control at 200 ppm [2]

C#CCN(Cc1ccc(-c2noc(C(F)(F)F)n2)cc1)C(=O)C(C)OC (stereo not shown) [Compound 1.200, 2-methoxy-N-prop-2-ynyl-N-[[4-[5-(trifluoromethyl)-1,2,4-oxadiazol-3-yl]phenyl]methyl]-propanamide]
≥ 80%: pest or weed control at 200 ppm [1] | pest or weed control at 200 ppm (Phakopsora Pachyrhizi) | pest or weed control at 200 ppm [2]

O=C(C1CCCO1)N(Cc1ccc(-c2noc(C(F)(F)F)n2)cc1)C1COC1 (stereo not shown) [Compound 1.747, N-(oxetan-3-yl)-N-[[4-[5-(trifluoromethyl)-1,2,4-oxadiazol-3-yl]phenyl]methyl]-tetrahydrofuran-2-carboxamide]
≥ 80%: pest or weed control at 200 ppm [1] | pest or weed control at 200 ppm (Phakopsora Pachyrhizi) | pest or weed control at 200 ppm [2]
